# Source: patent US9161533B2, “Plant pathogen resistance” (priority 2007, dated 2015)
# “Also recorded” adds a separate entry of the source.
# Assays:
# Assay type in all cases: in vivo, Arabidopsis
# virulent PmaDG3 = assay: Azelaic acid-induced resistance against virulent PmaDG3 infection
# Protocol: (§1) (A) Local and systemic resistance response by azelaic acid treatment against virulent PmaDG3 infections. Local or systemic leaves of 21˜23-day-old plants were treated with 5 mM MES (pH 5.6) (black bars) or 1 mM azelaic acid in 5 mM MES (pH 5.6, white bars) 2 days prior to challenge with the virulent PmaDG3 strain (OD600=0.0001). MES and azelaic acid were introduced into leaves by syringe-infiltration. […] (B) Growth of avirulent strains PmaDG6 (PmaDG3 carrying avrRpt2) and PmaDG34 (PmaDG3 carrying avrRpm1) in leaves of Col pretreated with 5 mM MES (black bars) or 1 mM azelaic acid in 5 mM MES (pH 5.6, white bars). (C) Twenty three-day-old plants were pretreated with 1, 10, 100, and 1000 μM azelaic acid in 5 mM MES or 5 mM MES for 2 days and then subjected to infection with virulent PmaDG3 at OD600=0.0001. […] (D) Plants were treated with 5 mM MES or 1 mM azelaic acid for the indicated times prior to inoculation with virulent PmaDG3. Inoculations with PmaDG3 were performed between noon and 1 pm. Azelaic acid (Aza) in 5 mM MES was applied to plants using a hand-sprayer. The growth of bacteria was measured on day 3 after inoculation. […] (E) Plants were treated and infected as in (D), except that infections were performed between […]. (*p<0.04). These experiments were repeated two to four times to confirm reproducibility.
# 1 mM azelaic acid in 5 mM MES was applied to wild-type Col, SAR-defective, and SA-deficient mutants (A) and jasmonic acid/ethylene-insensitive mutants (B) 2 days prior to challenge-inoculation of virulent PmaDG3 (OD600=0.0001). […] The experiments were repeated a minimum of three times. The number of asterisks indicates samples that were different from one another at given levels of statistical significance (*p<0.05, **p<0.01).
# (§2) Biological activity of azelaic acid in inducing disease resistance. 1 mM azelaic acid was infiltrated into leaves 3 and 4 of 3-week old plants. Two days later, plants were inoculated with virulent PmaDG3 onto leaves 3 and 4 or in the upper leaves, which were not pre-treated with azelaic acid (systemic leaves). Azelaic acid (1 mM) dissolved in 5 mM MES (pH 5.6) was not toxic to plant cell. […] Mock-treated and azelaic acid-treated plants were also infiltrated with avirulent derivatives of P. syringae pv. maculicola carrying avrRpt2 (PmaDG6) or avrRpm1 (PmaDG34).
# PmaDG3 growth was measured after spray treatment of plants with various concentrations of azelaic acid. […] It was also tested whether azelaic acid required a certain induction period for the induced resistance response. […] However, when plants were grown in the dark for 12 hours after treatment, azelaic acid was ineffective at conferring disease resistance (FIG. 3E). […] Thus, azelaic acid induces a light-dependent disease resistance response against infection with P. syringae that is also concentration- and time-dependent.
# To further characterize how plants regulate azelaic acid-induced resistance, 1 mM azelaic acid was sprayed onto wild type and several mutant plants 2 days before infection with virulent PmaDG3 and bacterial growth was measured. Unlike wild-type plants, the SA pathway mutants tested were susceptible to virulent PmaDG3 infection regardless of treatment with azelaic acid (FIG. 4A). […] Pathogen resistance was also dependent on […], which is important for SA-induced disease resistance and SAR maintenance in Arabidopsis. The growth of bacteria was also monitored in leaves of JA- and ethylene-insensitive mutants, jar1 and etr1, following treatment with 1 mM azelaic acid.
# [1] = test system: salicylic acid and camalexin levels; assay: Endogenous salicylic acid and camalexin levels after azelaic acid spray; conditions: 1 mM spray, no infection, vs mock
# Protocol: (§3) (A) Time course of free and total salicylic acid levels in leaves of Col after spray treatments with 5 mM MES (black bars) and 1 mM azelaic acid in 5 mM MES (white bars). (B) Camalexin levels in leaves of Col after azelaic acid treatment by spraying. Each experiment in (A) and (B) was performed with three different samples and the experiments were repeated three times. (C) Expression of an LTP gene (At2g38530) was elevated after azelaic acid treatment performed as in (A), however expression of PR1 and many other defense-related genes was unaffected. RT-PCR (23 cycles) was used to assess gene expression, with EF1a serving as a loading control.
# Since resistance to P. syringae requires activation of SA-dependent defenses accompanied by elevated endogenous SA levels, it was investigated whether azelaic acid directly induces SA accumulation. […] Additionally, the levels of the phytoalexin Camalexin, a defense metabolite, were similar in azelaic acid-treated and mock-treated plants (FIG. 5B). […] To investigate whether azelaic acid might affect additional defense markers, expression of defense-related genes was monitored using a mini array. […] RT-PCR confirmed that At2g38530 was induced by azelaic acid. However, PR1, a SA signaling marker, was not induced by azelaic acid. […]
# [2] = test system: PmaDG6 (PmaDG3 carrying avrRpt2); assay: Growth of avirulent PmaDG6 in azelaic acid-pretreated leaves; conditions: 1 mM pretreatment
# Protocol: as §1
# Biological activity of azelaic acid in inducing disease resistance. […]
# plant cell = assay: Toxicity of azelaic acid to plant cell; conditions: 1 mM in 5 mM MES (pH 5.6)
# Protocol: as §2
# [3] = test system: SA-dependent defense signaling; assay: Priming of SA accumulation after Pseudomonas syringae infection
# Protocol: (§4) Five mM MES or 1 mM azelaic acid in 5 mM MES were applied to leaves of wild-type Col Arabidopsis 2 days prior to inoculation of 10 mM MgSO4 (M), virulent PmaDG3 (V) and avirulent PmaDG6 expressing AvrRpt2 (Av). Leaves were collected at different times after inoculation and endogenous free and total SA level was measured. (B) Relative PR1 expression in leaves of mock-treated plants and azelaic acid-treated plants after virulent PmaDG3 infection. The expression of PR1 is plotted on a log scale. The number of asterisks indicates samples that were different from one another at given levels of statistical significance (*p<0.075, **p<0.05, ***p<0.01).
# (§5) Since SA signaling mutants were compromised in responding to azelaic acid, it was investigated whether azelaic acid might prime SA synthesis or SA-dependent defense responses in plants. To test this, plants were sprayed with 1 mM azelaic acid (or 5 mM MES) and after two days infected with virulent PmaDG3 and avirulent PmaDG6 (carrying avrRpt2) (OD600=0.01). […] The priming effect by azelaic acid was also investigated by analyzing PR1 expression, a molecular marker for SA signaling (FIG. 6B). Mock- and azelaic acid-treated plants were infected with virulent PmaDG3 (OD600=0.01) 2 days after spray treatments. PR1 expression was increased in both azelaic acid treated and untreated plants after infection with the virulent strain. However, the expression was higher in leaves pretreated with azelaic acid after pathogen infection, compared with expression in mock-treated plants following pathogen infection (note the log scale in FIG. 6B).
# defense-related genes = assay: Defense-related gene expression after azelaic acid treatment (mini array, RT-PCR)
# Protocol: as §3
# Since resistance to P. syringae requires activation of SA-dependent defenses accompanied by elevated endogenous SA levels, it was investigated whether azelaic acid directly induces SA accumulation. […] Additionally, the levels of the phytoalexin Camalexin, a defense metabolite, were similar in azelaic acid-treated and mock-treated plants (FIG. 5B). […] To investigate whether azelaic acid might affect additional defense markers, expression of defense-related genes was monitored using a mini array. […] RT-PCR confirmed that At2g38530 was induced by azelaic acid. However, PR1, a SA signaling marker, was not induced by azelaic acid. Thus, azelaic acid appears not to induce large changes in known signaling pathways activated by P. syrinagae, but does induce at least one defense-related gene.
# PR1 expression = assay: Priming of PR1 expression after virulent PmaDG3 infection; conditions: 1 mM spray 2 days before PmaDG3 (OD600=0.01); vs mock
# Protocol: as §4
# as §5, with “However, the expression was higher in leaves pretreated with azelaic acid after pathogen infection, compared with expression in mock-treated plants following pathogen infection (note the log scale in FIG. 6B).” left out
structure (smiles),measurement,setting,value
O=C(O)CCCCCCCC(=O)O [azelaic acid],"resistance, pretreatment 12 hours prior to pathogen challenge","virulent PmaDG3; 1 mM hand sprayer, light",low level of resistance
same,"resistance, pretreatment 6 hours prior to infection","virulent PmaDG3; 1 mM hand sprayer, plants grown in the light",still susceptible
same,disease symptoms,virulent PmaDG3; 1 mM infiltrated 2 days before PmaDG3 challenge,significant reduction in the disease symptoms; also recorded: very little disease symptom development
same,growth of PmaDG3,"virulent PmaDG3; 1 mM infiltrated 2 days before challenge, local and systemic leaves",reduction in pathogen growth; also recorded: significantly reduced
same,"protection, inoculation 48 h after spraying",virulent PmaDG3; 1 mM spray,Significant protection
same,"disease resistance, plants in the dark for 12 hours after treatment","virulent PmaDG3; 1 mM spray, dark",ineffective
same,resistance to PmaDG3 in SAR-defective / SA pathway mutants,virulent PmaDG3; 1 mM sprayed 2 days before infection,did not induce plant resistance; also recorded: susceptible
same,resistance in jar1 and etr1 mutants,"virulent PmaDG3; 1 mM, JA- and ethylene-insensitive mutants",did not affect; also recorded: effective in restricting bacterial growth
same,bacterial growth,virulent PmaDG3; 1 or 10 μM vs 5 mM MES,no difference in bacterial growth
same,suppression of bacteria growth,virulent PmaDG3; 100 and 1000 μM pretreatment,10 fold
same,resistance to PmaDG3 / growth of bacteria,virulent PmaDG3; 100 and 1000 μM pretreatment for 2 days,significant reduction of the growth of bacteria; also recorded: resistant to PmaDG3
same,Camalexin levels,[1],does not affect; also recorded: similar
same,free and total SA level,[1],does not affect; also recorded: no significant difference
same,growth of PmaDG6,[2],reduction in the growth
same,toxicity to plant cell,plant cell,not toxic
same,levels of free SA,"[3]; 1 mM spray 2 days before, 6 and 18 hrs after virulent PmaDG3 infection, vs mock, p<0.05",significantly higher
same,total SA accumulation,"[3]; 18 hrs after inoculation with both PmaDG3 and PmaDG6, vs mock, p<0.01",higher level
same,levels of free SA,[3]; after infection with PmaDG6 (carrying avrRpt2),not statistically significant
same,Endogenous free and total SA levels during Pseudomonas syringae infections,[3]; vs mock-treated plants,significantly higher
same,At2g38530 expression by RT-PCR,defense-related genes; RT-PCR,elevated; also recorded: induced
same,PR1 expression,"defense-related genes; azelaic acid alone, no infection",unaffected; also recorded: not induced
same,induction of LTP gene At2g38530,defense-related genes; mini array,3 fold
same,expression of most defense-related genes,"defense-related genes; mini array, vs mock",unaffected; also recorded: no difference in expression
same,PR1 expression after pathogen infection,PR1 expression,higher
